Experimental data taken from DBAASP.
≈ marks a conversion by molar mass, not a printed value.

Columns and labels:
Experiment in all cases: ≥ marks a high value that may be exact or a test limit, other limits are often not marked, values filed in µg/mL are converted to µM
Escherichia coli BW25113 = test system: Escherichia coli BW25113
Escherichia coli J2210 = test system: Escherichia coli J2210
Escherichia coli JJ2489 = test system: Escherichia coli JJ2489
Escherichia coli JW0013 = test system: Escherichia coli JW0013
[1] = test system: Escherichia coli JW0368 ΔsbmA
[2] = test system: Escherichia coli JW2778 ΔygdD
Escherichia coli MC1041 = test system: Escherichia coli MC1041
[3] = test system: Salmonella enterica subsp. enterica serovar Enteritidis MH91989
[4] = test system: Salmonella typhimurium SL1344
[5] = test system: Escherichia coli ATCC 25922
[6] = test system: Pseudomonas aeruginosa 21328
[7] = test system: Pseudomonas aeruginosa 25349
[8] = test system: Pseudomonas aeruginosa ATCC 27853
[9] = test system: Pseudomonas aeruginosa CICC 10419
[10] = test system: Pseudomonas aeruginosa CICC 11411
[11] = test system: Pseudomonas aeruginosa CICC 11421
[12] = test system: Pseudomonas aeruginosa CICC 11431
[13] = test system: Pseudomonas aeruginosa CICC 21625
[14] = test system: Pseudomonas aeruginosa CICC 21630
[15] = test system: Staphylococcus aureus ATCC 29213
[16] = test system: Bacillus amyloliquefaciens ATCC 23842
[17] = test system: Bacillus cereus ATCC 14579
[18] = test system: Bacillus licheniformis ATCC 14580
[19] = test system: Bacillus subtilis ATCC 6051
[20] = test system: Enterococcus faecalis 1F-1
[21] = test system: Enterococcus faecium 5F-10
[22] = test system: Proteus mirabilis ATCC 35659
[23] = test system: Pseudomonas aeruginosa PAO1
[24] = test system: Salmonella enterica ATCC H9812

Structure (SMILES) | MIC [5] [µM] | MIC [6] [µM] | MIC [7] [µM] | MIC [9] [µM] | MIC [10] [µM] | MIC [11] [µM] | MIC [12] [µM] | MIC [13] [µM] | MIC [14] [µM] | MIC [15] [µM] | MIC [16] [µM] | MIC [17] [µM] | MIC [18] [µM] | MIC [19] [µM] | MIC [20] [µM] | MIC [21] [µM] | MIC [22] [µM] | MIC [23] [µM] | MIC [24] [µM] | further results
CC(C)C[C@H](NC(=O)[C@H](CCCN=C(N)N)NC(=O)[C@@H]1CCCN1C(=O)[C@H](CCCN=C(N)N)NC(=O)[C@@H]1CCCN1C(=O)[C@@H]1CCCN1C(=O)[C@H](CCCN=C(N)N)NC(=O)[C@@H]1CCCN1C(=O)[C@H](CCC(N)=O)NC(=O)[C@@H]1CCCN1C(=O)[C@H](CCCN=C(N)N)NC(=O)[C@H](Cc1ccc(O)cc1)NC(=O)[C@@H](NC(=O)[C@@H]1CCCN1C(=O)[C@H](CCCCN)NC(=O)[C@H](CC(N)=O)NC(=O)[C@H](CC(N)=O)NC(=O)CN)C(C)C)C(=O)O [GNNKPVYRPQPRPPRPRL] |  |  |  |  |  |  |  |  |  |  |  |  |  |  |  |  |  |  |  | MIC (Escherichia coli BW25113): 0.096 µM (≈ 0.206 µg/mL); MIC (Escherichia coli J2210): 0.252 µM (≈ 0.54 µg/mL); MIC (Escherichia coli JJ2489): 0.133 µM (≈ 0.285 µg/mL); MIC (Escherichia coli JW0013): 0.096 µM (≈ 0.206 µg/mL); MIC [1]: 0.133 µM (≈ 0.285 µg/mL); MIC [2]: 0.192 µM (≈ 0.411 µg/mL); MIC (Escherichia coli MC1041): 0.126 µM (≈ 0.27 µg/mL); MIC [3]: 0.096 µM (≈ 0.206 µg/mL); MIC [4]: 0.192 µM (≈ 0.411 µg/mL)
CC(C)C[C@H](NC(=O)[C@H](CCC(=O)O)NC(=O)[C@H](CC(=O)O)NC(=O)[C@@H](NC(=O)[C@H](CCCN=C(N)N)NC(=O)[C@H](CO)NC(=O)[C@@H](N)CC(C)C)C(C)C)C(=O)O [LSRVDEL] | > 154 |  |  |  |  |  |  |  |  | > 154 | ≥ 154 | ≥ 154 | ≥ 154 | ≥ 154 | ≥ 154 | ≥ 154 | ≥ 154 | > 154 | ≥ 154 | 
CC(C)C[C@H](N)C(=O)N[C@@H](CO)C(=O)N[C@@H](CCCN=C(N)N)C(=O)N[C@H](C(=O)N[C@@H](CC(=O)O)C(=O)O)C(C)C [LSRVD] | 109 (≈ 64 µg/mL) |  |  |  |  |  |  |  |  | > 217 | ≥ 217 | ≥ 217 | ≥ 217 | ≥ 217 | ≥ 217 | ≥ 217 | ≥ 217 | > 217 | ≥ 109 | 

Further lines, with some results ahead:

MIC [5] [µM] | MIC [6] [µM] | MIC [7] [µM] | MIC [9] [µM] | MIC [10] [µM] | MIC [11] [µM] | MIC [12] [µM] | MIC [13] [µM] | MIC [14] [µM] | MIC [15] [µM] | MIC [16] [µM] | MIC [17] [µM] | MIC [18] [µM] | MIC [19] [µM] | MIC [20] [µM] | MIC [21] [µM] | MIC [22] [µM] | MIC [23] [µM] | MIC [24] [µM] | Structure (SMILES) | further results
7.21 (≈ 16 µg/mL) | 14.4 (≈ 32 µg/mL) | 3.61 (≈ 8 µg/mL) | 14.4 (≈ 32 µg/mL) | 14.4 (≈ 32 µg/mL) | 14.4 (≈ 32 µg/mL) | 7.21 (≈ 16 µg/mL) | 7.21 (≈ 16 µg/mL) | 7.21 (≈ 16 µg/mL) | 7.21 (≈ 16 µg/mL) |  |  |  |  |  |  |  |  |  | CC(C)C[C@H](NC(=O)[C@H](CCCN=C(N)N)NC(=O)[C@H](CCCN=C(N)N)NC(=O)[C@H](CC(C)C)NC(=O)[C@H](CCCN=C(N)N)NC(=O)[C@H](CCCN=C(N)N)NC(=O)[C@H](CCCN=C(N)N)NC(=O)[C@H](Cc1c[nH]c2ccccc12)NC(=O)[C@H](CCCN=C(N)N)NC(=O)[C@H](CCCN=C(N)N)NC(=O)[C@H](CCCN=C(N)N)NC(=O)[C@H](CC(C)C)NC(=O)[C@H](CCCN=C(N)N)NC(=O)[C@H](CCCN=C(N)N)NC(=O)[C@@H](N)CC(C)C)C(N)=O [LRRLRRRWRRRLRRL] | MIC [8]: 7.21 µM (≈ 16 µg/mL)
1.54 (≈ 4 µg/mL) | 1.54 (≈ 4 µg/mL) | 1.54 (≈ 4 µg/mL) | 3.09 (≈ 8 µg/mL) | 1.54 (≈ 4 µg/mL) | 3.09 (≈ 8 µg/mL) | 1.54 (≈ 4 µg/mL) | 3.09 (≈ 8 µg/mL) | 1.54 (≈ 4 µg/mL) | 3.09 (≈ 8 µg/mL) |  |  |  |  |  |  |  |  |  | CC(C)C[C@H](NC(=O)[C@H](CCCN=C(N)N)NC(=O)[C@H](CCCN=C(N)N)NC(=O)[C@H](CC(C)C)NC(=O)[C@H](CCCN=C(N)N)NC(=O)[C@H](CCCN=C(N)N)NC(=O)[C@H](CCCN=C(N)N)NC(=O)[C@H](Cc1c[nH]c2ccccc12)NC(=O)[C@H](Cc1c[nH]c2ccccc12)NC(=O)[C@H](Cc1c[nH]c2ccccc12)NC(=O)[C@H](CCCN=C(N)N)NC(=O)[C@H](CCCN=C(N)N)NC(=O)[C@H](CCCN=C(N)N)NC(=O)[C@H](CC(C)C)NC(=O)[C@H](CCCN=C(N)N)NC(=O)[C@H](CCCN=C(N)N)NC(=O)[C@@H](N)CC(C)C)C(N)=O [LRRLRRRWWWRRRLRRL] | 
